Measured values taken from patent publication US12006276B2, “Dibromobenzyl derivative, stereoisomer or salt thereof, and preparation method and application of dibromobenzyl derivative” (CHENGDU SHIBEIKANG BIOMEDICAL TECHNOLOGY CO., LTD., priority 2019, dated 2024).
Structures can show the parent of a compound that is named as a salt.

Columns and labels:
[1] = tested on: SD rats; experiment: Capillary expectoration test in rats; assay type: in vivo, rat; settings: for 90-min length of phlegm expelled: SD rats, 15 mg/kg via tail vein, capillary tube in trachea, x ± s, n=10; for Expectorant effect compared with the ambroxol hydrochloride group (in words): rats, 15 mg/kg, P<0.05 vs ambroxol hydrochloride
Description: Capillary Expectoration Test in Rats
The female and male SD rats with body weights ranging from 180 g to 220 g are randomLy allocated into 9 groups (n=10 rats). Before measuring the length of phlegm expelled, the rats are prohibited to eat but allowed to drink for 12 hrs, and then administrated via tail veins with corresponding products (dissolved in normal saline to adjust pH) or normal saline. After 30 mins, urethane saline solution (1 g/kg) is injected intraperitoneally for anesthesia, and the rats are fixed in a supine position for neck incision and trachea separation. […] The angle between the capillary tube and the trachea is adjusted to collect the phlegm, and the expectoration effect is evaluated based on a total length (mm) of the phlegm in the capillary tube.

[2] = tested on: mice; experiment: Phenol red expectoration test in mice; assay type: in vivo, mouse; settings: for Excretory amount of phenol red (OD value): 30 mg/kg as free alkali, twice via tail vein, trachea phenol red at 546 nm, x ± s, n=12; for Excretory amounts of phenol red compared with the control group (in words) / Excretory amounts of phenol red compared with the ambroxol hydrochloride group (in words): 30 mg/kg; for Excretory amounts of phenol red compared with the control group (in words): p<0.05 vs control; for Excretory amounts of phenol red compared with the ambroxol hydrochloride group (in words): P<0.05 vs ambroxol hydrochloride
Description: Phenol Red Expectoration Test in Mice
Methods: Seventy-two female and male mice are randomLy allocated into a control group (normal saline), an Example 1 group (30 mg/kg, as free alkali), an Example 3 group (30 mg/kg, as free alkali), an Example 5 group (30 mg/kg, as free alkali), an Example 12 group (30 mg/kg, as free alkali) and an ambroxol hydrochloride group (30 mg/kg, as free alkali) (n=12 mice); These mice are administrated twice in successive via tail veins with corresponding products (dissolved in normal saline to adjust pH) or normal saline, and then receive 5% phenol red saline solution (0.5 g/kg) by hypodermic administration 15 mins after the last dose. […] The effects on excretory amounts of phenol red from trachea of mice among groups are analyzed and compared, and results are shown in Table 2: […]

[3] = Pharmacokinetics test in rats; assay type: in vivo, rat; settings: intravenous; for MRT / clearance / half-life / AUC(0-inf): both sexes, rat, plasma, 10 mg/kg as free alkali; for MRT / clearance / half-life: n=6; for AUC(0-inf): n=6, read-out: AUC AUC0-inf; for Half-life, clearance, MRT and AUC compared with the ambroxol hydrochloride group (in words): P<0.05
Description: Pharmacokinetics Test in Rats
Methods: Twenty-four female and male rats are randomLy allocated into an Example 1 compound group (10 mg/kg, as free alkali), an Example 3 compound group (10 mg/kg, as free alkali), an Example 12 compound group and an ambroxol hydrochloride group (10 mg/kg, as free alkali) (n=6); These rats are given corresponding products (dissolved in normal saline to adjust pH) intravenously. About 0.2 mL of blood samples is respectively collected from jugular veins before and 15.0 min, 30.0 min, 1.0 h, 2.0 h, 3.0 h, 4.0 h, 6.0 h, 8.0 h, 12.0 h and 24.0 h after the administration, and then centrifuged at a high speed (7800×g) for 15 min in a tube containing EDTA-K2. The separated plasma is stored at −15° C.˜−35° C.

Structure (SMILES)	90-min length of phlegm expelled [1] [mm]	Excretory amount of phenol red (OD value) [2] [OD value]	Excretory amounts of phenol red compared with the control group (in words) [2]	MRT [3] [h]	clearance [3] [mL/min/kg]	half-life [3] [h]	AUC(0-inf) [3] [ng·h/mL]	Expectorant effect compared with the ambroxol hydrochloride group (in words) [1]	Excretory amounts of phenol red compared with the ambroxol hydrochloride group (in words) [2]	Half-life, clearance, MRT and AUC compared with the ambroxol hydrochloride group (in words) [3]
Nc1c(Br)cc(Br)cc1CN[C@H]1CC[C@H](O)CC1 [Ambroxol hydrochloride, reference compound]	29.9 ± 4.96	0.131 ± 0.015	significantly increase	1.18 ± 0.2	101	1.98 ± 0.34	1650 ± 71.9			
Nc1c(Br)cc(Br)cc1CNC12CC3CC(CC(O)(C3)C1)C2 [Example 1, 3-((2-amino-3,5-dibromobenzyl)amino)adamantane-1-ol]	39.9 ± 5.35	0.220 ± 0.063	significantly increase	2.58 ± 0.41	34.9	3.58 ± 0.45	4470 ± 250	remarkably superior to the ambroxol hydrochloride	remarkably superior to the ambroxol hydrochloride	significantly superior to the ambroxol hydrochloride group
Nc1c(Br)cc(Br)cc1CN[C@@H]1CCC[C@H]1O [Example 3, (1R,2R)-2-((2-amino-3,5-dibromobenzyl)amino)-cyclopentanol]	37.8 ± 6.45	0.218 ± 0.052	significantly increase	2.31 ± 0.36	47.7	3.12 ± 0.34	3650 ± 180	remarkably superior to the ambroxol hydrochloride	remarkably superior to the ambroxol hydrochloride	significantly superior to the ambroxol hydrochloride group
CC12CC3CC(C1)CC(NCc1cc(Br)cc(Br)c1N)(C3)C2 [Example 5, (2-amino-3,5-dibromobenzyl)-3-methyl-adamantane-1-amine]	36.9 ± 5.45	0.201 ± 0.062								
Nc1c(Br)cc(Br)cc1CNC12CC3CC(C1)CC(C(F)(F)F)(C3)C2 [Example 6, (2-amino-3,5-dibromobenzyl)-3-trifluoromethyl-adamantane-1-amine]	35.2 ± 4.79									
Nc1c(Br)cc(Br)cc1CN[C@@H]1CCC[C@@H]1C(F)(F)F [Example 7, (1R,2S)-2-trifluoromethyl-((2-amino-3,5-dibromobenzyl)amino)-cyclopentane]	31.8 ± 5.73									
Nc1c(Br)cc(Br)cc1CNC12CC3CC(CC(C3)C1F)C2 (stereo not drawn) [Example 8, (2-amino-3,5-dibromobenzyl)-2-fluoro-adamantane-1-amine]	35.8 ± 5.98									
Nc1c(Br)cc(Br)cc1CNC1C2CC3CC1CC(O)(C3)C2 (stereo not drawn) [Example 12, 4-((2-amino-3,5-dibromobenzyl)amino)adamantane-1-ol]	39.8 ± 5.31	0.221 ± 0.059	significantly increase	2.65 ± 0.42	35.8	3.43 ± 0.35	4490 ± 240	remarkably superior to the ambroxol hydrochloride	remarkably superior to the ambroxol hydrochloride	significantly superior to the ambroxol hydrochloride group
